According to patent US20020137891A1, “Protein scaffold and its use to multimerise monomeric polypeptides” (priority 1999, published 2002):

Assays:
E. coli SV6 groEL673 = assay: In vivo complementation of thermosensitive groEL mutant at 43° C., strain SV6; format: cell-based; conditions: pJC plasmid, relative to growth at 30° C.
Procedure: (§1) In vivo complementation experiments. Complementation experiments were performed by transforming electro-competent SV2 or SV6 cells with the pJC series of expression vectors and plating an aliquot of the transformation reactions directly at 43° C. The percentage of viable cells relative to the growth at 30° C. was determined. A representative number of clones which grew at 43° C. were incubated in absence of any selective markers at permissive temperature. After prolonged growth the loss of the pJC plasmids and the ts phenotype were verified. Each experiment was performed in duplicate. Plasmids carrying no groE genes or encoding the GroE proteins were used as negative or positive controls, respectively.

E. coli SV2 groEL44 = assay: In vivo complementation of thermosensitive groEL mutant at 43° C., strain SV2; format: cell-based; conditions: pJC plasmid, relative to growth at 30° C.
Procedure: as §1

bacteriophage λ (b2cI) = assay: Growth (plaque formation) of bacteriophage λ at 30° C. in transformed wild-type and groEL mutant strains; format: cell-based, E. coli
Description: Bacterial and bacteriophage strains. The E. coli strains used in this study were: C41(DE3), a mutant of BL21(DE3) capable of expressing toxic genes (Miroux, B. & Walker, J. E. (1996) J. Mol. Biol. 260, 289-298); SV2 (B178groEL44), SV3 (B178groEL59) and SV6 (B178groEL673): isogenic strains carrying temperature-sensitive alleles of groEL; SV1(=B178) (Georgopoulos, C., Hendrix, R. W., Casjens, S. R. & Kaiser, A. D. (1973) J. Mol. Biol. 76, 45-60), AI90 (ΔgroEL::kan^R) [pBAD-EL] (Ivic, A., Olden, D., Wallington, E. J. & Lund, P. A. (1997) Gene 194, 1-8), and TG1 (Gibson, T. J. (1984) Ph.D. thesis, University of Cambridge, U.K). Bacteriophage λb2cI (Zeilstra-Ryalls, J., Fayet, O., Baird, L. & Georgopoulos, C. (1993) J. Bacteriol. 175, 1134-1143) was used according to standard methods (Arber, W., Enquist, L., Hohn, B., Murray, N. E. & Murray, K. (1983) in Lambda II., ed. R. W. Hendrix, J. W. r., F. W. Stahl and R. A. Weisberg (Cold Spring Harbor Laboratory, Cold Spring Harbor, N.Y.), pp. 433-466); plaque formation was assayed at 30° C. T4D0, a derivative of bacteriophage T4 (Zeilstra-Ryalls, J., Fayet, O., Baird, L. & Georgopoulos, C. (1993) J. Bacteriol. 175, 1134-1143), was used according to standard methods (Karam, J. D. (1994) Molecular biology of bacteriophage T4. (American Society for Microbiology, Washington, D.C.)); plaque formation was assayed at 37° C.
Bacteriophage λ requires the chaperonins GroES and GroEL for protein folding during morphogenesis; bacteriophage T4 requires GroEL and Gp31, the latter being encoded by the bacteriophage genome (Zeilstra-Ryalls, J., Fayet, O. & Georgopoulos, C. (1991) Annu. Rev. Microbiol. 45, 301-325). Nine groE alleles which fail to support λ growth have been sequenced (Zeilstra-Ryalls, J., Fayet, O., Baird, L. & Georgopoulos, C. (1993) J. Bacteriol. 175, 1134-1143). We examined the ability of MC7, over-expressed from the constitutive tet promoter on a high-copy number vector (see FIG. 2), to complement three mutant groEL alleles for plaque formation by λ (b2cI) at 30° C. (Table 3) and T4 at 37° C. (Table 4).

GroES = GroES (Escherichia coli, UniProt P0A6F9); conditions: read-out: apparent dissociation constant for the formation of the GroEL-GroES complex; cited from earlier work
Sequence of GroES (P0A6F9 whole entry): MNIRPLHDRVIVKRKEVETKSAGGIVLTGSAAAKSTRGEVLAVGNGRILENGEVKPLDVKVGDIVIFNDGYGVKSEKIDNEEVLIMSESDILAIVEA

[1] = target: T1, pig heart mitochondrial malate dehydrogenase (mtMDH) (Sus scrofa, UniProt P00346); assay: In vitro refolding and aggregation protection of heat- and dithiothreitol-denatured mtMDH; format: biochemical
T1 construct: pig heart mitochondrial malate dehydrogenase (mtMDH; Boehringer-Mannheim); purchased Boehringer-Mannheim; host or cells: pig heart
T1 sequence (P00346 25-338): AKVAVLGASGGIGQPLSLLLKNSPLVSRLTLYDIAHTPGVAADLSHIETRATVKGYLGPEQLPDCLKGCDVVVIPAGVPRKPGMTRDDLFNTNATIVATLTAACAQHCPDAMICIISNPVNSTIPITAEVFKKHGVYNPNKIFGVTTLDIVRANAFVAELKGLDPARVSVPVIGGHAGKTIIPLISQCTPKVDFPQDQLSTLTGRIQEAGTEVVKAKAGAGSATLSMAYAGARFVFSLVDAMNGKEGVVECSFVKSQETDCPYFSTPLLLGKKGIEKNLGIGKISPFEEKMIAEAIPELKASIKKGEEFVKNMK
Procedure: In vitro refolding experiments. Refolding assays of pig heart mitochondrial malate dehydrogenase (mtMDH; Boehringer-Mannheim) and aggregation protection were carried out essentially as described (Peres Ben-Zvi, A. P., Chatellier, J., Fersht, A. R. & Goloubinoff, P. (1998) Proc. Natl. Acad. Sci. U.S.A. 95, 15275-15280). The concentrations of MC7 used were between 8-16 μM (reporter to protomer).

GroEL (1-548): E. coli molecular chaperone, 14 subunits of 57.5 kD in two seven membered rings [reference compound]
Relative colony forming ability, SV6 groEL673 (E. coli SV6 groEL673): 1 | Relative colony forming ability, SV2 groEL44 (E. coli SV2 groEL44): 1 | Complementation of groEL mutant strains for bacteriophage λ growth (in words) (bacteriophage λ (b2cI)): weak complementation of λ growth in SV2 (groEL44) and SV3 (groEL59; Ser201→Phe) | Effect of over-expression on plaque formation by bacteriophage λ in SV1 (groE^+) (in words) (bacteriophage λ (b2cI)): suffices to inhibit λ growth | Growth of bacteriophage λ, SV1 (groEL^+) (bacteriophage λ (b2cI); pJC plasmid): − (no visible plaques (<10^−4)) | Growth of bacteriophage λ, SV2 groEL44 (bacteriophage λ (b2cI); pJC plasmid): + (10-fold fewer plaques, or plaque size reduced relative to wild-type groEL^+ strain, or both) | Growth of bacteriophage λ, SV3 GroEL59 (bacteriophage λ (b2cI); pJC plasmid): ++ (5-fold fewer plaques relative to wild-type groEL^+ strain, or both) | Growth of bacteriophage λ, SV6 groEL673 (bacteriophage λ (b2cI); pJC plasmid): +/− (10^2-fold fewer plaques and plaque size reduced relative to wild-type groEL^+ strain) | Kd (GroES): 1000 nM | yield of refolded mtMDH ([1]; after 120 min, FIG. 7c): 6 nM | rate of refolding of denatured mtMDH ([1]; reactivation at 25° C., chaperone alone, FIG. 7b): 0.04 nM/min
